This is an account of results in patent US20140072604A1, “Block Copolymer For Intraperitoneal Administration Containing Anti-Cancer Agent, Micelle Preparation Thereof, And Cancer Therapeutic Agent Comprising The Micelle Preparation As Active Ingredient” (priority 2009, published 2014).

Common to all, as to assay type: in vivo, BALB/c nude mouse
Series [1] has as its system human ovarian cancer cell line ES-2. The series can be described thus: Life-prolonging effect in nude mouse model for peritoneal disseminated metastasis (ES-2), intraperitoneal administration. As to conditions: once three days after tumor transplantation, observed until 80 days.
Description: Therapeutic effects on peritoneal disseminated metastasis were tested by using a mouse model for peritoneal disseminated metastasis. Specifically, the mouse model for peritoneal disseminated metastasis was prepared by intraperitoneal injection of human ovarian cancer cell line ES-2 (1.0×10^6 cells) to an 8-week old BALB/c nude mouse.
In order to estimate advantageous life-prolonging effects of the present micelle preparation having encapsulated paclitaxel, the model mice were divided into three groups, i.e., 8 mice per group. […] In addition, the drug dosage was determined by converting a clinical dosage for intravenous route (paclitaxel 210 mg/m^2 and paclitaxel micelle preparation: 150 mg/m^2) to those for a mouse using an AUC comparison. […]
1 ml of saline (Control group); 1 ml of saline containing 66.7 mg/kg of irinotecan hydrochloride (66.7 mg/kg CPT-11 administered group); and 1 ml of 5% glucose solution containing the micelle preparation containing 30 mg/kg of SN-38 (30 mg/kg SN-38 micelle administered group) were intraperitoneally administered to the mouse of each group, respectively. […] In addition, the drug dosage was determined as the one-third of the maximum amount allowed for intravenous route administration for a mouse. […]
Series [2] relates to human ovarian cancer cell line SHIN-3. The series can be described thus: Life-prolonging effect in nude mouse model for peritoneal disseminated metastasis (SHIN-3), intraperitoneal administration. How it is done: In order to estimate an effect of intraperitoneal administration of the micelle preparation having encapsulated paclitaxel, a mouse model for peritoneal disseminated metastasis was prepared by intraperitoneal injection of human ovarian cancer cell line SHIN-3 (1.0×10^7 cells) to an 8-week old BALB/c nude mouse. Three groups were created as following: 1 ml of saline (Control group, 18 mice); 1 ml of saline containing […] of paclitaxel (100 mg/kg PTX administered group, 8 mice); and 1 ml of 5% glucose solution containing the micelle preparation containing 50 mg/ml of encapsulated paclitaxel (50 mg/kg PTX micelle administered group, 8 mice) were intraperitoneally administered to the mouse of each group, respectively. The amounts of the ingredients were of by 20 g mouse body weight. The administrations were carried out once after one week of the tumor transplantations. The mice were observed until 120 days after the cell transplantation. The survival rates were recorded and the survival curves was plotted in FIG. 3.

Series [3] relates to human stomach cancer cell line MKN45-P. In words: Life-prolonging effect in nude mouse model for peritoneal disseminated metastasis (MKN45-P), intraperitoneal administration. As to conditions: 50 mg/kg, once three days after tumor transplantation, observed until 60 days. As to the method: In order to estimate an effect of intraperitoneal administration of a micelle preparation having encapsulated paclitaxel, a mouse model for peritoneal disseminated metastasis was prepared by intraperitoneal injection of human stomach cancer cell line MKN45-P (1.0×10^6 cells) to an 8-week old BALB/c nude mouse. Three groups were created as following: 1 ml of saline (Control group, 8 mice); 1 ml of saline containing 50 mg/ml of paclitaxel (50 mg/kg PTX administered group, 8 mice); and 1 ml of 5% glucose solution containing the micelle preparation containing 25 mg/ml of encapsulated paclitaxel (25 mg/kg PTX micelle administered group, 8 mice) were intraperitoneally administered to the mouse of each group, respectively. The amounts of the ingredients were of by 25 g mouse body weight. The administrations were carried out once after three days of the tumor transplantation. The mice were observed until 60 days after the cell transplantation. The survival rates was recorded and the survival curves was plotted in FIG. 4.

Where a name gives a salt, the structure may show the parent alone.

With `CC(=O)O[C@H]1C(=O)[C@@]2(C)[C@H]([C@H](OC(=O)c3ccccc3)[C@]3(O)C[C@H](OC(=O)[C@H](O)[C@@H](NC(=O)c4ccccc4)c4ccccc4)C(C)=C1C3(C)C)[C@]1(OC(C)=O)CO[C@@H]1C[C@@H]2O` [PTX, paclitaxel], the “50% survival rate, day after transplantation” value in series [1] (70 mg/kg, Control Day 17) was determined as 44 days; in series [2] (100 mg/kg, once one week after tumor transplantation, observed until 120 days) it was 100 days; in series [3], 55 days. Also, the toxic death result in series [2] (100 mg/kg PTX administered group, 8 mice, once) is on record as “two cases of toxic death”.
Consider `CCc1c2c(nc3ccc(OC(=O)N4CCC(N5CCCCC5)CC4)cc13)-c1cc3c(c(=O)n1C2)COC(=O)[C@]3(O)CC` [CPT-11, irinotecan hydrochloride], for which the “50% survival rate, day after transplantation” value in series [1] (66.7 mg/kg, Control Day 21) is 56 days.
